BindingDB's records for doi:10.1021/jm058208o (Universidad Central De Venezuela, 2005)

Biological target: Falcipain-2 (Plasmodium falciparum, UniProt Q9NAW2)
Test: Falcipain Enzyme Inhibition Assay
Settings: pH 5.5; 22 °C
Procedure: The substrate peptide terminating in AMC is processed by falcipain-2 with or without inhibitors, and the accumulation of AMC was monitored in a Labsystems Fluoroskan Ascent spectrofluorometer. IC50 values were determined from plots of percent activity over concentration using GraphPad Prism software.

Chain of Falcipain-2 (Q9NAW2 whole entry): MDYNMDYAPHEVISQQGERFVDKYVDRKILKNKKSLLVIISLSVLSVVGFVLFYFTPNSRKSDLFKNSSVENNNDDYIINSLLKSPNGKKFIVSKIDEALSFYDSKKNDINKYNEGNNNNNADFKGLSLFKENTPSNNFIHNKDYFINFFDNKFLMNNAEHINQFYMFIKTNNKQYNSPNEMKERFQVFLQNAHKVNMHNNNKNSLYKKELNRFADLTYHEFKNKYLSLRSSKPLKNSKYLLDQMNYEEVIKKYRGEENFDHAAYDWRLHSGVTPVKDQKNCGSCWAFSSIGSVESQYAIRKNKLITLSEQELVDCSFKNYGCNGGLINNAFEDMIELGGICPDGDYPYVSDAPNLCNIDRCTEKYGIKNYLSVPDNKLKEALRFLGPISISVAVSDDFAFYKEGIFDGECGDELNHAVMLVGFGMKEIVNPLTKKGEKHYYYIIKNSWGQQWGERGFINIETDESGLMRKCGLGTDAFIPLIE

IC50 [µM]	Compound
0.058	CC(C)C[C@H](NC(=O)[C@@H]1O[C@H]1C(=O)O)C(=O)NCCCCN=C(N)N [L-trans-3-Carboxyoxiran-2-carbonyl-L-leucylagmatine]
12.5	COc1ccc(NC(=O)Nc2ccc(C(=O)/C=C/c3cccnc3)cc2)cc1 [3-(4-methoxyphenyl)-1-{4-[(2E)-3-(pyridin-3-yl)prop-2-enoyl]phenyl}urea]
3.4	O=C(Nc1ccc(Cl)cc1)Nc1ccc(C(=O)/C=C/c2cccnc2)cc1 [3-(4-chlorophenyl)-1-{4-[(2E)-3-(pyridin-3-yl)prop-2-enoyl]phenyl}urea]
